The values below come from patent publication US20230017532A1 (Hoffmann-La Roche Inc., priority 2018, published 2023).

A word on the IC90: it is the concentration needed for an effect of 90%.

SMILES strings stand for the structures. Structures can show the parent of a compound that is named as a salt.

In the test the test system is Acinetobacter baumannii ATCC17978. The test can be described thus: Antimicrobial susceptibility testing: 90% growth inhibitory concentration (IC90) determination, Iso-Sensitest broth, OD 600 nm. Type of test: cell-based. Conditions: Acinetobacter baumannii, ATCC17978, 16 h, 90% growth inhibitory concentration, Acinetobacter baumannii ATCC17978, Iso-Sensitest broth, OD 600 nm over 16 h; read-out: ATCC 17978 IC90. The method in brief: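 Growth of bacteria (~5×10^5 CFU/ml, Iso-Sensitest medium, 35±2 °C) was followed by OD at 600 nm at 20-min intervals over 16 h against a 10-point twofold compound series (e.g. 50–0.097 μM final). Concentration giving 90% inhibition in log phase was reported.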

Regarding `Cc1cc(Nc2nccn3c(-c4ccc(OC(F)F)cc4)cnc23)ccc1C(=O)NCCOCCOCCOCCN=[N+]=[N-]` [Example 139, N-[2-[2-[2-(2-azidoethoxy)ethoxy]ethoxy]ethyl]-4-[[3-[4-(difluoro-methoxy)phenyl]imidazo [1,2-a]pyrazin-8-yl]amino]-2-methylbenzamide], the IC90 was found to be 1000 nM. As for `COc1ccc(-c2cnc3c(Nc4ccc(C(=O)N(C)CCOCCN5CCN(C=O)CC5)c(C)c4)nccn23)cc1F` [Example 140, 4-[[3-(3-fluoro-4-methoxyphenyl)imidazo[1,2-a]pyrazin-8-yl]amino]-N-[2-[2-(4-formylpiperazin-1-yl)ethoxy]ethyl]-N,2-dimethyl-benzamide], the figure is 1000 nM. As for `CCCCC(=O)NCCOCCNC(=O)c1ccc(Nc2nccn3c(-c4ccc(OC)cc4)cnc23)cc1C` [Example 141, 4-[[3-(4-methoxyphenyl)imidazo[1,2-a]pyrazin-8-yl]amino]-2-methyl-N-[2-[2-(pentanoylamino)ethoxy]ethyl] benzamide], the figure is 1000 nM.

With `Cc1cc(Nc2nccn3c(-c4ccc(OC(F)F)cc4)cnc23)ccc1C(=O)NCCOCCNC(=O)CN1CCN(C)CC1` [Example 143, 4-[[3-[4-(difluoro-methoxy)phenyl]imidazo [1,2-a]pyrazin-8-yl]amino]-2-methyl-N-[2-[2-[[2-(4-methylpiperazin-1-yl)acetyl]amino]ethoxy]ethyl] benzamide], the IC90 was 1200 nM. As for `COc1ccc(-c2cnc3c(Nc4ccc(C(=O)N(C)CCN(C)CCO)c(C)c4)nccn23)cc1F` [Example 144, 4-[[3-(3-fluoro-4-methoxyphenyl)imidazo[1,2-a]pyrazin-8-yl]amino]-N-[2-[2-hydroxyethyl (methyl)amino]ethyl]-N,2-dimethyl-benzamide], the figure is 1900 nM; as for `COc1ccc(-c2cnc3c(Nc4ccc(C(=O)NCCOCCN)c(F)c4)nccn23)cc1` [Example 145, N-[2-(2-aminoethoxy)ethyl]-2-fluoro-4-[[3-(4-methoxyphenyl)imidazo[1,2-a]pyrazin-8-yl]amino] benzamide; hydrochloride], 1200 nM. Consider `Cc1cc(Nc2nccn3c(-c4ccc(OC(F)F)cc4)cnc23)ccc1C(=O)NCCOCCNC(=O)CN(CCO)CCO` [Example 146, N-[2-[2-[[2-[bis(2-hydroxyethyl)amino]acetyl]amino]ethoxy]ethyl]-4-[[3-[4-(difluoromethoxy)phenyl]imidazo [1,2-a]pyrazin-8-yl]amino]-2-methylbenzamide], for which the IC90 came to 1200 nM.

Regarding `COc1ccc(-c2cnc3c(Nc4ccc(C(=O)NCCOCCn5nccn5)c(C)c4)nccn23)cc1` [Example 147, 4-[[3-(4-methoxyphenyl)imidazo[1,2-a]pyrazin-8-yl]amino]-2-methyl-N-[2-[2-(triazol-2-yl)ethoxy)ethyl] benzamide], the concentration for an effect of 90% (IC90) stood at 1300 nM.

In the case of `COc1ccc(-c2cnc3c(Nc4ccc(C(=O)NCCOCCNC(=O)CO)c(C)c4)nccn23)cc1` [Example 148, N-[2-[2-[(2-hydroxyacetyl)amino]ethoxy]ethyl]-4-[[3-(4-methoxyphenyl)imidazo[1,2-a]pyrazin-8-yl]amino]-2-methylbenzamide], the concentration for an effect of 90% (IC90) is 1300 nM. Turning to `Cc1cc(Nc2nccn3c(-c4ccc(OC(F)F)cc4)cnc23)ccc1C(=O)NCCOCCOCCO` [Example 149, 4-[[3-[4-(difluoro-methoxy)phenyl]imidazo [1,2-a]pyrazin-8-yl]amino]-N-[2-[2-(2-hydroxyethoxy)ethoxy]ethyl]-2-methylbenzamide], the 90% effect concentration (IC90) came out at 1300 nM.

As to `COCCOCCOCCNC(=O)c1ccc(Nc2nccn3c(-c4ccc(OC(F)F)cc4)cnc23)cc1C` [Example 150, 4-[[3-[4-(difluoro-methoxy)phenyl]imidazo [1,2-a]pyrazin-8-yl]amino]-N-[2-[2-(2-methoxy-ethoxy)ethoxy]ethyl]-2-methylbenzamide], the IC90 was found to be 1500 nM. On to `COc1ccc(-c2cnc3c(Nc4ccc(C(=O)N(C)CCOCCN5CCN(C6COC6)CC5)c(C)c4)nccn23)cc1F` [Example 151, 4-[[3-(3-fluoro-4-methoxyphenyl)imidazo[1,2-a]pyrazin-8-yl]amino]-N,2-dimethyl-N-[2-[2-[4-(oxetan-3-yl)piperazin-1-yl]ethoxy]ethyl] benzamide], for which the IC90 was 1600 nM.

Take `Cc1cc(Nc2nccn3c(-c4ccc(OC(F)F)cc4)cnc23)ccc1C(=O)NCCOCCOCCOCCO` [Example 152, 4-[[3-[4-(difluoro-methoxy)phenyl]imidazo [1,2-a]pyrazin-8-yl]amino]-N-[2-[2-[2-(2-hydroxyethoxy)ethoxy]ethoxy]ethyl]-2-methylbenzamide]: the 90% effect concentration (IC90) is 1600 nM.

Turning to `Cc1cc(Nc2nccn3c(-c4ccc(OC(F)F)cc4)cnc23)ccc1C(=O)NCCOCCNC(=O)CN1CCNCC1` [Example 153, 4-[[3-[4-(difluoro-methoxy)phenyl]imidazo [1,2-a]pyrazin-8-yl]amino]-2-methyl-N-[2-[2-[(2-piperazin-1-ylacetyl)amino)ethoxy]ethyl] benzamide; hydrochloride], the IC90 was determined as 2000 nM.

For the compound `Cc1cc(Nc2nccn3c(-c4ccc(OC(F)F)cc4)cnc23)ccc1C(=O)NCCOCCNC(=O)C(N)CCCCN` (centres unmarked) [Example 154, N-[2-[2-(2,6-diaminohexanoyl-amino)ethoxy]ethyl]-4-[[3-[4-(difluoromethoxy)phenyl]imidazo [1,2-a]pyrazin-8-yl]amino]-2-methylbenzamide; hydrochloride], the IC90 came to 2200 nM. As for `Cc1cc(Nc2nccn3c(-c4ccc(OC(F)F)cc4)cnc23)ccc1C(=O)NCCOCCOCCOCCOCCO` [Example 155, 4-[[3-[4-(difluoro-methoxy)phenyl]imidazo [1,2-a]pyrazin-8-yl]amino]-N-[2-[2-[2-[2-(2-hydroxyethoxy)ethoxy]ethoxy]ethoxy]ethyl]-2-methylbenzamide], the figure is 2300 nM. As for `COC(=O)COCCOCCNC(=O)c1ccc(Nc2nccn3c(-c4ccc(OC(F)F)cc4)cnc23)cc1C` [Example 156, methyl 2-[2-[2-[[4-[[3-[4-(difluoro-methoxy)phenyl]imidazo [1,2-a]pyrazin-8-yl]amino]-2-methylbenzoyl]amino]ethoxy]ethoxy]acetate], the figure is 2400 nM; as for `COc1ccc(-c2cnc3c(Nc4ccc(C(=O)NCCCOCC(=O)O)c(C)c4)nccn23)cc1F` [Example 157, 2-[3-[[4-[[3-(3-fluoro-4-methoxyphenyl)imidazo[1,2-a]pyrazin-8-yl]amino]-2-methylbenzoyl]amino]propoxy] acetic acid], 8100 nM.

Turning to `Cc1cc(Nc2nccn3c(-c4ccc(OC(F)F)cc4)cnc23)ccc1C(=O)NCCOCC(=O)NCc1nnn[nH]1` [Example 158, 4-[[3-[4-(difluoro-methoxy)phenyl]imidazo [1,2-a]pyrazin-8-yl]amino]-2-methyl-N-[2-[2-oxo-2-(1H-tetrazol-5-ylmethylamino)ethoxy]ethyl] benzamide], the IC90 turned out to be 8900 nM.

Take `CCc1cc(Nc2nccn3c(-c4ccc(Cl)c(F)c4F)cnc23)ccc1C(=O)NCCSCCN` [Example 159, N-[2-(2-aminoethyl-sulfanyl)ethyl]-4-[[3-(4-chloro-2,3-difluorophenyl)imidazo[1,2-a]pyrazin-8-yl]amino]-2-ethylbenzamide]: the IC90 stood at 210 nM.
